Data: article PMC7399337, “Biological Properties and Absolute Configuration of Flavanones From Calceolaria thyrsiflora Graham” (Frontiers in Pharmacology, 2020)
≈ marks a conversion by molar mass, not a printed value.

Tests used:
[1] = test system: E. coli 33.1; test: Antibacterial MIC, CLSI microdilution, human pathogens; format: cell-based; details: Escherichia coli; E. coli 33.1 (multi-resistant); 18 h; read-out: Minimum inhibitory concentration (MIC)
Protocol: (§1) Briefly, stock solutions (5 mg/ml) of compounds in DMSO were diluted in Mueller-Hinton broth (MHB) to the different two-fold assay concentrations. […] The obtained solution was added to MHB and serially two-fold diluted in a 96-well microplate. A sample of 100 μL of inoculum 1.5 × 10^6 colony forming unit (CFU) ml^-1 in MHB was added and then incubated at 37°C for 18 h. The assay was repeated three times. Wells containing MHB, 100 μL of inoculum, and DMSO served as negative controls.

[2] = test system: E. coli ATCC25922; test: as above; format: cell-based; details: Escherichia coli, 18 h, read-out: Minimum inhibitory concentration (MIC)
Protocol: as §1

[3] = test system: bacterial growth; parameters: method as in Bravo et al., 2005; details: high concentrations (1,000 µg/ml); ref Bravo et al., 2005; cited from earlier work
[4] = test system: B. cinerea; test: In vitro fungicidal activity, radial mycelial growth test on PDA; format: cell-based; details: Botrytis cinerea, 72 h, read-out: Percentage of inhibition on in vitro mycelial growth of B. cinerea
Protocol: (§2) A strain of Botrytis cinerea isolated from a naturally infected grape (Vitis vinifera) was used in all experiments. Isolated Phytophtora cinnamomi was provided by the Agricultural and Livestock Service of Valparaíso. Both strains were maintained on a potato dextrose agar (PDA) medium (DIFCO, Detroit, MI) at 4°C. The inoculum of both pathogens was grown on PDA and incubates in dark at 23°C for 5 days in the case of B. cinerea and 8 days for P. cinnamomi.
(§3) The fungicidal activity of flavanones, extracts, the negative control (C-) composed of solvent (1% ethanol), and the positive control (C+, commercial fungicide Captan® and metalaxil® for B. cinerea and P. cinnamomi, respectively) were assessed using the radial growth test technique on PDA medium as described ([Taborga et al., 2015]). All test samples were dissolved in ethanol (1%) and water, to obtain final concentrations of 50, 150, and 250 mg/L in the PDA medium. A plug (4 mm) of PDA medium with five-day-old mycelium colonies of the pathogen was placed at the center of a Petri dish with PDA medium with or without studied test samples and were incubated at 23°C in dark for 72 h (B. cinerea) and 120 h (P. cinnamomi). After incubation, the diameters of colonies were measured and the inhibition percentage was calculated as the average of three replicas compared to C-.

[5] = test system: S. aureus MRSA 622-4; test: Antibacterial MIC, CLSI microdilution, human pathogens; format: cell-based; details: 18 h; for MIC: Staphylococcus aureus, read-out: Minimum inhibitory concentration (MIC)
Protocol: as §1

[6] = test system: S. aureus MRSA 97-7; test: as above; format: cell-based; details: 18 h; for MIC: Staphylococcus aureus, read-out: Minimum inhibitory concentration (MIC)
Protocol: as §1

[7] = test system: S. aureus NTCC8325-4; test: as above; format: cell-based; details: for MIC: Staphylococcus aureus, NTCC83254, 18 h, read-out: Minimum inhibitory concentration (MIC)
Protocol: as §1

[8] = molecular target: T1, 5-hLOX (Homo sapiens, UniProt P09917); test: In vitro 5-hLOX enzyme assay (H2DCFDA fluorescence); format: biochemical; details: for Type of inhibition: 5-hLOX
T1 construct: purchased Cayman Chemicals Inc. (Ann Arbor, MI, USA)
T1 sequence (P09917 1-674): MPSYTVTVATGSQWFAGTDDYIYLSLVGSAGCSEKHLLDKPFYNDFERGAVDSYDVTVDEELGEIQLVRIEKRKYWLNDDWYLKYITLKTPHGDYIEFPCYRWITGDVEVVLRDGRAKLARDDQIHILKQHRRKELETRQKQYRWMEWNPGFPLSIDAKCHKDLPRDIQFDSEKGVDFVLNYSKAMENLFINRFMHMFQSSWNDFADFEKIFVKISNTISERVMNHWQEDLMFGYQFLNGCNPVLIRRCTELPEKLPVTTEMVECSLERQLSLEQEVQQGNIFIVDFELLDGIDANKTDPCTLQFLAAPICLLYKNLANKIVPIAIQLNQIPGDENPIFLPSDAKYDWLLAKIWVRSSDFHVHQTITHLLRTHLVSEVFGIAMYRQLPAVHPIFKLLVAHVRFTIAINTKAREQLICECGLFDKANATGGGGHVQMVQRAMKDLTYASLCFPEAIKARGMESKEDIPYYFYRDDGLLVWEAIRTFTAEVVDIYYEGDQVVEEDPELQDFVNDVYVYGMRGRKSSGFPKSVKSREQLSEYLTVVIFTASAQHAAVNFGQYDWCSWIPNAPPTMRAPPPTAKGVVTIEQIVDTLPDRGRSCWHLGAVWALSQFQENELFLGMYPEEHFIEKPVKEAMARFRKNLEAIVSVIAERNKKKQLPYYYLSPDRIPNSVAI
Protocol: The commercially available enzyme 5-hLOX from Cayman Chemicals Inc. (Ann Arbor, MI, USA), was diluted (1:500) in the assay buffer. This contained 4-(2-hydroxyethyl)-1-piperazineethane sulfonic acid (HEPES) 50 mM, ethylenediamine tetraacetic acid (EDTA) 2 mM, adenosine triphosphate (ATP) 10 μM, and CaCl2 10 μM at pH 7.5) admixed with 10 μM of H2DCFDA. The reaction mixture was incubated for 15 min in the assay plate. Later, 280 μL of buffer and 10 μM of inhibitors were added per well and incubated for 30 min at 37°C. Finally, the reaction was started by adding a suitable concentration of arachidonic acid (0.5 μM) and the fluorescence was read in a multimode detector Synergy™ HT Multi-Mode Microplate Reader (Biotek, Bad Friedrichshall, Germany) […] after incubation at room temperature for 1 h. The IC50 values were obtained for analysis of oxidation of H2DCFDA dye to the highly fluorescent 2’,7’-dichloro-fluorescein (DCF) using the non-linear curve-fitting program. […] All data were collected in duplicate and the assays were performed on different days to ensure reproducibility.

[9] = molecular target: T1, 5-hLOX; test: as above; format: biochemical; details: kinetic assays, inhibitor 0–1 μM, substrate 0.2–5 μM
[10] = In vitro cytotoxic activity, CyQuant cell viability, 72 h; format: cell-based; details: mouse
Protocol: (§4) The used cell lines include MDA-MB-231 human breast adenocarcinoma cells, B16-F10 mouse metastatic melanoma cells and MEF primary mouse embryonic fibroblast. Cells were maintained in a DMEM high glucose medium (Mediatech, Manassas, VA, USA) supplemented with 10% (MDA-MB-231 and B16-F10) or 15% (MEF) heat-inactivated fetal bovine serum (HyClone Laboratories, South Logan, USA), 100 IU ml^-1 penicillin and 100 μg ml^-1 streptomycin while maintained at 37°C in a 5% CO2 humidified atmosphere. Cell viability was measured using a CyQuant® Direct Cell Proliferation Assay Kit (Life Technologies, Grand Island, NY, USA) following the manufacturer’s instruction. Briefly, 5,000 cells per well were seeded onto a flat-bottom 96-well plate in 200 μL final volume. Six hours after seeding, the culture medium was replaced by the medium containing the tested compounds at 0.01 to 100 µM concentrations in DMSO (0.1% final concentration) during 72 h. Untreated cells (medium containing only 0.1% DMSO) were used as controls. At the end of the incubation, 100 μL of culture medium was removed from each well and replaced by detection reagent solution provided by the kit (which is a 1:5 mixture of the reagent CyQUANT®, direct nucleic acid stain and the reagent labeled as CyQUANT® direct background suppressor I). Cells were incubated for 1 h and fluorescence emission was measured at 535 nm with excitation at 480 nm in a microplate reader (Infinite 200 PRO, Tecan, Grödig, Austria). At least four independent experiments were performed for each concentration. The results from each experiment were transformed into percentage of controls and the LC50 values were graphically obtained from the dose-response curves. The LC50 value was obtained adjusting the dose-response curve to sigmoidal curves (variable slope) using the GraphPad Prisma 6.0 software ([GraphPad-Software, 2015]).

[11] = test system: MDA-MB-231 human breast adenocarcinoma cells; test: as above; format: cell-based; details: Homo sapiens, MDA-MB-231, 72 h, read-out: LC50 ± SD
Protocol: as §4

[12] = test system: B16-F10 mouse metastatic melanoma cells; test: as above; format: cell-based; details: Mus musculus, B16-F10, 72 h, read-out: LC50 ± SD
Protocol: Cell viability was measured using a CyQuant® Direct Cell Proliferation Assay Kit (Life Technologies, Grand Island, NY, USA) following the manufacturer’s instruction. Briefly, 5,000 cells per well were seeded onto a flat-bottom 96-well plate in 200 μL final volume. Six hours after seeding, the culture medium was replaced by the medium containing the tested compounds at 0.01 to 100 µM concentrations in DMSO (0.1% final concentration) during 72 h. Untreated cells (medium containing only 0.1% DMSO) were used as controls. At the end of the incubation, 100 μL of culture medium was removed from each well and replaced by detection reagent solution provided by the kit (which is a 1:5 mixture of the reagent CyQUANT®, direct nucleic acid stain and the reagent labeled as CyQUANT® direct background suppressor I). […] At least four independent experiments were performed for each concentration.

[13] = test system: P. cinnamomi; test: In vitro fungicidal activity, radial mycelial growth test on PDA; format: cell-based, Phytophtora cinnamomi; details: 120 h
Protocol: as §2, §3

[14] = test system: S. aureus ATCC; parameters: method as in Bravo et al., 2005; details: 250 µg/ml; ref Bravo et al., 2005; cited from earlier work

CC1(C)S[C@@H]2[C@H](NC(=O)[C@H](N)c3ccccc3)C(=O)N2[C@H]1C(=O)O [Ampicillin, reference compound]
MIC [1]: > 100 mg/L | MIC [2]: 60 mg/L (≈ 172 µM)

O=c1[nH]c2ccccc2o1 [BOA, 2-benzoxazolinone]
inhibitory activity of bacterial growth [3]: inhibitory activity

O=C1C2CC=CCC2C(=O)N1SC(Cl)(Cl)Cl (stereo not shown) [Captan]
inhibition at 50 µg/mL ([4]; 50 mg/L): 94 ± 5.2% | inhibition at 150 µg/mL ([4]; 150 mg/L): 100 ± 0.1% | inhibition at 250 µg/mL ([4]; 250 mg/L): 100 ± 0.2%

O=C1CC(c2ccc(O)c(O)c2)Oc2cc(O)cc(O)c21 (stereo not shown) [Compound 3, 5,7,3’,4’-Tetrahydroxyflavanone]
MIC [1]: > 100 mg/L | MIC [2]: > 100 mg/L | MIC [5]: > 100 mg/L | MIC [6]: > 100 mg/L | MIC [7]: > 100 mg/L | Type of inhibition [8]: competitive | inhibition at 10 µM ([8]; Flavanones at 10 µM): 88 ± 0.678% | IC50 ([8]; read-out: IC50 (5-hLOX)): 0.22 µM | Ki [9]: 0.07 µM

COc1cc(C2CC(=O)c3c(O)cc(O)cc3O2)ccc1O (stereo not shown) [Compound 4, 3’-methoxy-4’,5,7-trihydroxyflavanone]
MIC [1]: > 100 mg/L | MIC [2]: > 100 mg/L | MIC [5]: > 100 mg/L | MIC [6]: > 100 mg/L | MIC [7]: > 100 mg/L | inhibition at 10 µM ([8]; Flavanones at 10 µM): 11.7 ± 2.45%

O=C1Nc2ccc(O)cc2OC1O (stereo not shown) [Compound 7-OH-HBOA, 2,7-dihydroxy-2H-1,4-benzoxazin-3(4H)-one]
inhibitory activity of bacterial growth [3]: inhibitory activity

O=C1C(O)Oc2ccccc2N1O (stereo not shown) [DIBOA, 2,4-dihydroxy-2H-1,4-benzoxazin-3(4H)-one]
inhibitory activity of bacterial growth [3]: inhibitory activity

COc1cc([C@@H]2c3cc4c(cc3[C@@H](O[C@@H]3O[C@@H]5CO[C@@H](C)O[C@H]5[C@H](O)[C@H]3O)[C@H]3COC(=O)[C@H]23)OCO4)cc(OC)c1O [Etoposide, reference compound]
CC50 at 72 h [10]: 1.03 ± 0.17 µM | CC50 [11]: 1.33 ± 0.28 µM | CC50 [12]: 1.74 ± 0.32 µM

O=C1Nc2ccccc2OC1O (stereo not shown) [HBOA, 2-dydroxy-2H-1,4-benzoxazin-3(4H)-one]
inhibitory activity of bacterial growth [3]: inhibitory activity

COCC(=O)N(c1c(C)cccc1C)C(C)C(=O)OC (stereo not shown) [Metalaxil, reference compound]
Percentage of inhibition on in vitro mycelial growth of P. cinnamomi ([13]; 50 mg/L): 100 ± 0.2% | Percentage of inhibition on in vitro mycelial growth of P. cinnamomi ([13]; 150 mg/L): 100 ± 0.1% | Percentage of inhibition on in vitro mycelial growth of P. cinnamomi ([13]; 250 mg/L): 100 ± 0.1%

CC(Cc1ccc(O)c(O)c1)C(C)Cc1ccc(O)c(O)c1 (stereo not shown) [NDGA, nordihydroguaiaretic acid, reference compound]
Type of inhibition [8]: competitive | % of inhibition (5-hLOX) ([8]; Flavanones at 10 µM): 93 ± 5.870%

CC(=O)O[C@H]1C(=O)[C@@]2(C)[C@H]([C@H](OC(=O)c3ccccc3)[C@]3(O)C[C@H](OC(=O)[C@H](O)[C@@H](NC(=O)c4ccccc4)c4ccccc4)C(C)=C1C3(C)C)[C@]1(OC(C)=O)CO[C@@H]1C[C@@H]2O [Taxol, reference compound]
CC50 at 72 h [10]: 0.4 ± 0.07 µM | CC50 [11]: 0.21 ± 0.48 µM | CC50 [12]: 0.48 ± 0.08 µM

CN[C@H](CC(C)C)C(=O)N[C@H]1C(=O)N[C@@H](CC(N)=O)C(=O)N[C@H]2C(=O)N[C@H]3C(=O)N[C@H](C(=O)N[C@H](C(=O)O)c4cc(O)cc(O)c4-c4cc3ccc4O)[C@H](O)c3ccc(c(Cl)c3)Oc3cc2cc(c3O[C@@H]2O[C@H](CO)[C@@H](O)[C@H](O)[C@H]2O[C@H]2C[C@](C)(N)[C@H](O)[C@H](C)O2)Oc2ccc(cc2Cl)[C@H]1O [Vancomicin, reference compound]
Minimum inhibitory concentration (MIC) [5]: 5 mg/L (≈ 3.45 µM) | Minimum inhibitory concentration (MIC) [6]: 25 mg/L (≈ 17.3 µM) | Minimum inhibitory concentration (MIC) ([7]; 18 h): 3,5 µg/ml

O=C(O)c1cc(O)c(O)c(O)c1 [gallic acid]
inhibition activity of S. aureus ATCC [14]: 67.2% | inhibitory activity of bacterial growth [3]: inhibitory activity
